Assay results taken from patent US6586440B2, “Pharmaceutical compositions of 5-alkynyl uracil compounds” (SmithKline Beecham Corporation, priority 1990, dated 2003).
Read-outs that look alike come from different tables or passages of the source.

What was measured:
[1] = target: T1, Uracil reductase (dihydropyrimidine dehydrogenase, EC 1.3.1.2) (Bos taurus, UniProt Q28007); experiment: Determination of uracil reductase inactivation; assay type: biochemical, bovine; conditions: for inhibition at 100 µM: 0.5 h; for relative first-order rate constants for inactivation of enzyme (parenthetical values): fractional activity as a function of time of incubation of 50 μM inactivator with enzyme
T1 construct: (dihydropyrimidine dehydrogenase, EC 1.3.1.2) purified from bovine live; from tissue; host or cells: bovine liver ('bovine live' [sic])
T1 sequence (Q28007 1-1025): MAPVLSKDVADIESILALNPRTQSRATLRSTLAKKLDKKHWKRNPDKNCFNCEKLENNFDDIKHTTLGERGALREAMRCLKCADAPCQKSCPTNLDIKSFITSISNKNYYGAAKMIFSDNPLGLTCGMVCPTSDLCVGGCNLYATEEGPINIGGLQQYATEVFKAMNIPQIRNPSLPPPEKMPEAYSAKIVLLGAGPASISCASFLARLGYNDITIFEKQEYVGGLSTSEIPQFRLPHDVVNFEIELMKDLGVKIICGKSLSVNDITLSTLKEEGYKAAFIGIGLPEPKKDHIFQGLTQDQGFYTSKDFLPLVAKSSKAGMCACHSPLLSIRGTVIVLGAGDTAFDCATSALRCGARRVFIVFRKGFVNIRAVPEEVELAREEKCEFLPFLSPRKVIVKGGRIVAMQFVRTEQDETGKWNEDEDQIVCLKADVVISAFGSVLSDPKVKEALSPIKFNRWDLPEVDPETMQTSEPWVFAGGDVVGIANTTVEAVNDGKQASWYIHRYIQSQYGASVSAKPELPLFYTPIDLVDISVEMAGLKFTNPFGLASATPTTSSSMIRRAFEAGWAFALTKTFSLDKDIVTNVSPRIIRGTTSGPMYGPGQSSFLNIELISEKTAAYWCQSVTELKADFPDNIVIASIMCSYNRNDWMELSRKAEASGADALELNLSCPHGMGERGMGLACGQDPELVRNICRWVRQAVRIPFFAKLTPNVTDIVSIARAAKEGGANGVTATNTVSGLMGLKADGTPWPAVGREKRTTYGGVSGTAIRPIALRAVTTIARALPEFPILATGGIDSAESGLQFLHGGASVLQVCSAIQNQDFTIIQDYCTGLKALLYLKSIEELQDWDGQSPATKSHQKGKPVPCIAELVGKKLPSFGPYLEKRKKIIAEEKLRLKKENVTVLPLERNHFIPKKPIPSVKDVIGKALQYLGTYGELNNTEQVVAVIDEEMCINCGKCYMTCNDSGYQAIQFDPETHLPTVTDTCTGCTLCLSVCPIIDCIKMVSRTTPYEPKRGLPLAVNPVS
Protocol: Determination of Uracil Reductase Inactivation
Uracil reductase (1 μM) (dihydropyrimidine dehydrogenase, EC 1.3.1.2) purified from bovine live was incubated with 100 μM inactivator and 5 mM dithiothreitol (enzyme reductant) at 37° for 30 minutes in 0.05 M Tris-HCL at pH 8.0. The enzyme and inactivator were diluated 100-fold into the assay buffer, which contained 200 μM NADPH, 200 μM thymine and 1 μM dithiothreitol in Tris-HCl at pH 8.0. The velocity of the enzyme was determined spectrophotometrically. These velocities have been corrected for NADPH oxidase activity, which was less than 10% of the rate of thymine-dependent oxidation of NADPH. The % inactivation of the enzyme was equal to 100% minus the percent of enzymatic activity remaining. Enzyme incubated without inhibitor was stable under these conditions. Parenthetical values are the relative first-order rate constants for inactivation of enzyme determined from similar experiments where the fractional activity was measured as a function of the time of incubation of 50 μM inactivator with enzyme.

[2] = tested on: Male mice; experiment: Protection from zidovudine toxicity in mice; assay type: in vivo
Protocol: Male mice were doses p.o. with 1000 mg/kg/day of zidovudine for 30 days either alone, or 1.5 hours after dosing with 2 mg/kg/day of 5-ethynyluracil (5-EU). Other groups of mice (a) were dosed with 2 mg/kg/day of 5-ethynyluracil alone; and (b) served as controls, receiving neither zidovudine nor 5-ethynyluracil. Levels of haematocrit, haemoglobin and red blood cells were determined.

[3] = 1 μM enzyme incubated with 100 μM inactivator and 5 mM dithiothreitol, 37°, 30 minutes, pH 8.0, then diluted 100-fold into assay buffer, read-out: % Inactivation
[4] = male mice, p.o., 30 days, zidovudine 1000 mg/kg/day, 5-EU 2 mg/kg/day, given 1.5 hours before zidovudine in the combination

SMILES	inhibition at 100 µM [1, 3]	relative first-order rate constants for inactivation of enzyme (parenthetical values) [1]	other results
O=c1[nH]cc(Br)c(=O)[nH]1 [5 -bromouracil, 5-bromouracil]			inhibition at 100 µM ([1]; pH 8, read-out: % Inactivation): 75%
O=c1[nH]cc(C(Cl)=CBr)c(=O)[nH]1 [5-(2-bromo-1-chlorovinyl)uracil]	68%		
O=c1[nH]cc(C#CBr)c(=O)[nH]1 [5-bromoethynyluracil]	100%	(8)	
N#Cc1c[nH]c(=O)[nH]c1=O [5-cyanouracil]	100%	(14)	
C#Cc1c[nH]c(=O)[nH]c1=O [5-ethynyluracil, 5-Ethynyluracil]	100%	(100)	HEMATOCRIT [2, 4]: 45.9%; HEMOGLOBIN [2, 4]: 15.1 g/dL; RED BLOOD CELLS [2, 4]: 9.1 million/µL; prevention of red-blood cell anaemia induced by treatment with zidovudine ([2]; mice): at least partially prevented
CCCCC#Cc1c[nH]c(=O)[nH]c1=O [5-hex-1-ynyluracil]	90%		
CC#Cc1c[nH]c(=O)[nH]c1=O [5-propynyluracil, 5-Propynyluracil]	100%	(8)	melting point: 275 to 280 °C (dec.)
O=c1[nH]cc(C(F)(F)F)c(=O)[nH]1 [5-trifluorouracil]			% Inactivation ([1]; 1 μM enzyme incubated with 100 μM inactivator and 5 mM dithiothreitol, 37°, 30 minutes, pH 8.0, then diluted 100-fold into assay buffer): 75%

Continued, in another order:

inhibition at 100 µM [1, 3]	relative first-order rate constants for inactivation of enzyme (parenthetical values) [1]	SMILES	other results
100%	(5)	C=C(Cl)c1c[nH]c(=O)[nH]c1=O [5-(1-chlorovinyl)uracil]	
93%		O=c1[nH]cc(C=CBr)c(=O)[nH]1 [5-bromovinyluracil]	
86%		C=Cc1c[nH]c(=O)[nH]c1=O [5-vinyluracil]	
100%	(4)	O=c1[nH]cc(I)c(=O)[nH]1 [Example 5-iodouracil, 5-iodouracil]	
